Measurements as given in US5521180A, “Morpholine derivative” (Yamanouchi Pharmaceutical Co., Ltd., priority 1993, dated 1996).
Where a name gives a salt, the structure may show the parent alone. Read-outs that look alike come from different tables or passages of the source.

Experiments:
5-HT reuptake sites = target: T1, 5-HT reuptake sites (Rattus norvegicus, UniProt P31652); assay: [3H]-Citalopram binding to 5-HT reuptake sites (5-HT reuptake inhibition, in vitro); conditions: rat cerebral cortex membrane, about 1.0 nM [3H]-Citalopram, 25° C., 60 minutes
T1 construct: a rat cerebral cortex membrane preparation (about 0.4 mg-protein); from tissue; host or cells: rat cerebral cortex membrane preparation
Protocol: The 5-HT reuptake inhibitory activity was tested by examining the degree of inhibition of a test compound on binding of [^3 H]-Citalopram to 5-HT reuptake sites.
The method of D'amato RJ, et al. described in J. Pharmacol. Exp. Ther., 242, 364 (1987) was used. A buffer solution (0.5 ml) containing about 1.0 nM of [^3 H]-Citalopram, a rat cerebral cortex membrane preparation (about 0.4 mg-protein), and a test compound was allowed to react at 25° C. for 60 minutes. Thereafter, the labeled ligand of bound form was separated form the labeled ligand of free form by suction filtration. The amount of the ligand nonspecifically bound to the 5-HT reuptake sites, which was obtained by adding excess non-labeled Fluoxetine (10 μM), was subtracted from the total amount of the bound ligand to obtain the amount of the ligand specifically bound to the 5-HT reuptake sites. The IC50 (the concentration which reduces the amount of the specifically bound ligand by 50%) for each compound was calculated and converted to a dissociation constant (Ki value). in vivo Test: […]

5-HT reuptake = assay: Enhancement of the action of L-5-hydroxytryptophan in mice (5-HT reuptake inhibition, in vivo); set-up: species or system Male ICR mice; conditions: Mus musculus, ip, intraperitoneal, 30 minutes before 90 mg/kg i.v. L-5-hydroxytryptophan
Protocol: Enhancement of the action of L-5-hydroxytryptophan which is a 5-HT precursor was tested [Naunyn-Schmiedeberg's Archives of Pharmacology, 311, 185-192 (1980)]. Male ICR mice weighing from 30 to 40 g were used. A test drug was intraperitoneally administered, and 30 minutes later 90 mg/kg of L-5-hydroxytryptophan was intravenously injected. […] The test drug was evaluated from the ED50 in manifestation of each action.

5-HT2 receptors = target: T2, 5-HT2 receptors (Rattus norvegicus, UniProt P14842); assay: [3H]-Ketanserin binding, antagonism for 5-HT2 receptors (in vitro); conditions: rat cerebral cortex membrane, about 1.0 nM [3H]-Ketanserin, 25° C., 30 minutes; read-out: Antagonism for 5-HT2 Receptor (Ki Value)
T2 construct: a rat cerebral cortex membrane preparation (about 0.2 mg-protein); from tissue; host or cells: rat cerebral cortex membrane preparation
Protocol: The degree of inhibition of a test compound on binding of [^3 H]-Ketanserin was tested. The method of Leysen JE, et al. described in Mol. Pharmacol., 21, 301 (1982) was used. A buffer solution (0.5 ml in total) containing about 1.0 nM of [^3 H]-Ketanserin, a rat cerebral cortex membrane preparation (about 0.2 mg-protein), and a test compound was allowed to react at 25° C. for 30 minutes. Thereafter, the bound labeled ligand was separated by suction filtration. The amount of the ligand nonspecifically bound to the 5-HT2 receptors, which was obtained by adding excess non-labeled Metergoline (10 μM), was subtracted from the total amount of the bound ligand to obtain the amount of the ligand specifically bound to 5-HT2 receptors. The IC50 (the concentration at which the amount of the specifically bound ligand is reduced by 50%) for each compound was calculated and converted to a dissociation constant (Ki value).

[3H]-dopamine uptake = [3H]-dopamine uptake into corpus striatum synaptosomes; format: biochemical, Wistar male rat
Protocol: (§1) The degree of inhibition of a test compound on uptake of [^3 H]-5-HT, [^3 H]-noradrenaline and [^3 H]-dopamine into synaptosomes was examined. The method of Harada and Maeno described in Biochem. Pharmacol., 28, 2645 (1979) was used. A Wistar male rat was decapitated and the cerebral cortex and the corpus striatum were taken out. The synaptosome fraction of the cerebral cortex was prepared for 5-HT and noradrenaline uptake and that of the corpus striatum was prepared for dopamine uptake. Each synaptosome fraction was incubated at 37° C. for 3 minutes, and [^3 H]-5-HT, [^3 H]-noradrenaline and [^3 H]-dopamine (10^-7 M) was added to the respective fraction. After further incubation for 2 minutes, the system was cooled with ice (0° C.) to stop the reaction. Then, the reaction system was filtered through a Whatman CF/B glass filter, and the radioactivity trapped on the filter was measured with a liquid scintillation counter. The nonspecific activity was obtained by using a reaction system containing no test drug and having been incubated at 0° C. The test drug was evaluated from the IC50 (the concentration at which the uptake of each radioactive ligand reduced by 50%).

[1] = tested on: [3H]-noradrenaline uptake; assay: [3H]-noradrenaline uptake into cerebral cortex synaptosomes; format: biochemical, Wistar male rat
Protocol: as §1

[3H]-5-HT uptake = [3H]-5-HT uptake into cerebral cortex synaptosomes; format: biochemical, Wistar male rat; conditions: rat cerebral cortex synaptosomes, 10^-7 M ligand, 37° C.; read-out: IC50 in inhibition of [3H]-5-HT uptake
Protocol: as §1

[2] = clinical use, Physician's Desk Reference 1990; cited from earlier work
α1 receptors = conditions: background; causes side effects based thereon; cited from earlier work
[3] = selectivity, about 30 or more times

T2 sequence (P14842 whole entry): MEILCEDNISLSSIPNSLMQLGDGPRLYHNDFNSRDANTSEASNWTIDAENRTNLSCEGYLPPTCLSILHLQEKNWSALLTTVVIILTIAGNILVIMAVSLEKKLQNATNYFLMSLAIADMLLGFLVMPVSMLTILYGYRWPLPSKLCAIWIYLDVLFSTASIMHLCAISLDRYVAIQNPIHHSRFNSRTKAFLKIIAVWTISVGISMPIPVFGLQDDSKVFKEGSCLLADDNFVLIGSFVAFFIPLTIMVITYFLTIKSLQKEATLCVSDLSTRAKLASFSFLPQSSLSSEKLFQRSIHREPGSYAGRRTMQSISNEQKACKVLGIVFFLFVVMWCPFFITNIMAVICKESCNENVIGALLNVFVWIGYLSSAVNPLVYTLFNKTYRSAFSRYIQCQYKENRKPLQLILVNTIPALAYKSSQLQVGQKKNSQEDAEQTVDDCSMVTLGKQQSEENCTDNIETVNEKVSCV
T1 sequence (P31652 whole entry): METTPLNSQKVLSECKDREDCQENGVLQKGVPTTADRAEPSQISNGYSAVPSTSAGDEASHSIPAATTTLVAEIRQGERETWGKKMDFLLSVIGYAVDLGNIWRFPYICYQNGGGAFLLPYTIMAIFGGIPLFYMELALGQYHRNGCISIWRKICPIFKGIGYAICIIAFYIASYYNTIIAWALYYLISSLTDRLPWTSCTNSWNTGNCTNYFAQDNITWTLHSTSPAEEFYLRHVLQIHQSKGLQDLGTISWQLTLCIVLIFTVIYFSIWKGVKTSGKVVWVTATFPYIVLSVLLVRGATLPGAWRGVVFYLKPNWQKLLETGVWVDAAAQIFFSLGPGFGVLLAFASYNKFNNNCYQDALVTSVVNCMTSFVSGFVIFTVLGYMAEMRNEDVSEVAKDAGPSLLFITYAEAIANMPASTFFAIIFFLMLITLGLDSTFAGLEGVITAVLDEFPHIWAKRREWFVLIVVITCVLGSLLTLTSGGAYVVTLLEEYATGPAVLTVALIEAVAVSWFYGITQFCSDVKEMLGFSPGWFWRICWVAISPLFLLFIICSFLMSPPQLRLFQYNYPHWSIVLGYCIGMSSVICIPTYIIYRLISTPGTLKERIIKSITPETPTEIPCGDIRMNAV

## Fc1ccc(OCC2CNCCO2)c2c1CCC2.O=C(O)/C=C/C(=O)O (single isomer, unassigned; (-)) [Example 4, (-)-2-[[(7-fluoro-4-indanyl)oxy]methyl]morpholine fumarate]
5-HT reuptake sites
  Ki: 21 nM
5-HT reuptake; read-out: ED50 in manifestation of head shaking behavior
  ED50: 7.2 mg/kg
5-HT reuptake; read-out: ED50 in manifestation of hind leg abduction
  ED50: 14.1 mg/kg
5-HT reuptake; read-out: ED50 in manifestation of tremor
  ED50: 6.3 mg/kg
5-HT2 receptors
  Ki: 100 nM

## Fc1ccc(OCC2CNCCO2)c2c1CCC2 (single isomer, unassigned; (-)) [Example 5, (-)-2-[[(7-fluoro-4-indanyl)oxy]methyl]morpholine hydrochloride]
5-HT reuptake sites
  Ki: 21 nM
5-HT2 receptors
  Ki: 100 nM

## Fc1ccc(OCC2CNCCO2)c2c1CCC2 (stereo not drawn) [Example 1, 2-[[(7-fluoro-4-indanyl)oxy]methyl]morpholine]
[3H]-dopamine uptake; rat corpus striatum synaptosomes, 10^-7 M ligand, 37° C., read-out: IC50 in inhibition of [3H]-dopamine uptake
  IC50: ≥ 10000 nM
[3H]-dopamine uptake; [3]
  [3H]-5-HT uptake inhibitory activity relative to [3H]-dopamine uptake inhibitory activity: ≥ 30 times
[1]; rat cerebral cortex synaptosomes, 10^-7 M ligand, 37° C., read-out: IC50 in inhibition of [3H]-noradrenaline uptake
  IC50: 6720 nM
[1]; [3]
  [3H]-5-HT uptake inhibitory activity relative to [3H]-noradrenaline uptake inhibitory activity: ≥ 30 times
[3H]-5-HT uptake
  IC50: 227 nM

## CNCCC(Oc1ccc(C(F)(F)F)cc1)c1ccccc1 (stereo not drawn) [Fluoxetine]
[2]
  side effects during the course of therapy: induces anxiety or insomnia

## O=c1n(CCCN2CCN(c3cccc(Cl)c3)CC2)nc2ccccn12 [Trazodone]
α1 receptors
  affinity to α1 receptors (in words): exhibits affinity to α1receptors

## c1cc2c(c(OCC3CNCCO3)c1)CCC2 (stereo not drawn) [compound 1, 2-[[(4-Indanyl)oxy]methyl]morpholine, reference compound]
5-HT reuptake sites
  Ki: 52 nM
5-HT2 receptors
  Ki: 1030 nM

## C1=Cc2cccc(OCC3CNCCO3)c2C1 (stereo not drawn) [compound 2, 2-[[(7-Indenyl)oxy]methyl]morpholine, reference compound]
5-HT reuptake sites
  Ki: 22 nM
5-HT2 receptors
  Ki: 4670 nM
